Experimental data published in ChEMBL document CHEMBL1132521, “Synthesis and hypoglycemic effect of chrysin derivatives” (Bioorg Med Chem Lett, 1999).

Experiments:
Mus musculus [1] = assay: Body weight was determined in mouse after oral administration of 5 mg/kg on day 0; format: functional
Mus musculus [2] = assay: Abnormal symptoms was determined in mouse after oral administration of 20 mg/kg; - sign indicates abnormal symptoms in treated mouse; format: functional, organism-based; parameters: dose 20 mg/kg
Mus musculus [3] = assay: Daily food consumption was determined in mouse after oral administration of 20 mg/kg; format: functional
Rattus norvegicus [4] = assay: Spleen weight was determined in rat after oral administration of 500 mg/kg; format: functional; parameters: unit not given beside the values
Mus musculus [5] = assay: Abnormal symptoms was determined in mouse after oral administration of 100 mg/kg; - sign indicates abnormal symptoms in treated mouse; format: functional, organism-based; parameters: dose 100 mg/kg
Mus musculus [6] = assay: Body weight was determined in mouse after oral administration of 500 mg/kg on day 0; format: functional
Rattus norvegicus [7] = assay: Liver weight was determined in rat after oral administration of 500 mg/kg; format: functional; parameters: unit not given beside the values
Mus musculus [8] = assay: Daily water consumption was determined in mouse after oral administration of 5 mg/kg; format: functional
Rattus norvegicus [9] = assay: Daily water consumption was determined in rat after oral administration of 500 mg/kg; format: functional
Mus musculus [10] = assay: Daily food consumption was determined in mouse after oral administration of 100 mg/kg; format: functional
Rattus norvegicus [11] = assay: Lung weight was determined in rat after oral administration of 500 mg/kg; format: functional; parameters: unit not given beside the values
Rattus norvegicus [12] = assay: Abnormal symptoms was determined in rat after oral administration of 500 mg/kg; - sign indicates abnormal symptoms in treated mouse; format: functional, organism-based; parameters: dose 500 mg/kg
Mus musculus [13] = assay: Daily water consumption was determined in mouse after oral administration of 100 mg/kg; format: functional
Mus musculus [14] = assay: Daily food consumption was determined in mouse after oral administration of 5 mg/kg; format: functional
Mus musculus [15] = assay: Abnormal symptoms was determined in mouse after oral administration of 5 mg/kg; - sign indicates abnormal symptoms in treated mouse; format: functional, organism-based; parameters: dose 5 mg/kg
Mus musculus [16] = assay: Body weight was determined in mouse after oral administration of 500 mg/kg on day 7; format: functional
Mus musculus [17] = assay: Body weight was determined in mouse after oral administration of 100 mg/kg on day 7; format: functional
Mus musculus [18] = assay: Body weight was determined in mouse after oral administration of 5 mg/kg on day 7; format: functional
[19] = Ratio of hypoglycemic activity in mice was tested on day 7.; format: functional
Mus musculus [20] = assay: Body weight was determined in mouse after oral administration of 20 mg/kg on day 7; format: functional
Rattus norvegicus [21] = assay: Body weight was determined in rat after oral administration of 500 mg/kg on day 7; format: functional
Mus musculus [22] = assay: Daily water consumption was determined in mouse after oral administration of 500 mg/kg; format: functional
Rattus norvegicus [23] = assay: Body weight was determined in rat after oral administration of 500 mg/kg on day 0; format: functional
Mus musculus [24] = assay: Body weight was determined in mouse after oral administration of 20 mg/kg on day 0; format: functional
Rattus norvegicus [25] = assay: Kidney weight was determined in rat after oral administration of 500 mg/kg; format: functional
Mus musculus [26] = assay: Daily food consumption was determined in mouse after oral administration of 500 mg/kg; format: functional
Mus musculus [27] = assay: Abnormal symptoms was determined in mouse after oral administration of 500 mg/kg; - sign indicates abnormal symptoms in treated mouse; format: functional, organism-based; parameters: dose 500 mg/kg
Rattus norvegicus [28] = assay: Daily food consumption was determined in rat after oral administration of 500 mg/kg; format: functional
Mus musculus [29] = assay: In vivo hypoglycemic activity after administration (50 mg/kg) in mice on day 0 was determined; format: functional
Mus musculus [30] = assay: Body weight was determined in mouse after oral administration of 100 mg/kg on day 0; format: functional
Mus musculus [31] = assay: In vivo hypoglycemic activity after administration (50 mg/kg) in mice on day 7 was determined; format: functional
Mus musculus [32] = assay: Daily water consumption was determined in mouse after oral administration of 20 mg/kg; format: functional
Mus musculus [33] = assay: In vivo hypoglycemic activity after administration (43 mg/kg) in mice on day 7 was determined; format: functional
Mus musculus [34] = assay: In vivo hypoglycemic activity after administration (43 mg/kg) in mice on day 0 was determined; format: functional
Mus musculus [35] = assay: In vivo hypoglycemic activity after administration (40 mg/kg) in mice on day 0 was determined; format: functional
Mus musculus [36] = assay: In vivo hypoglycemic activity after administration (40 mg/kg) in mice on day 7 was determined; format: functional
Mus musculus [37] = assay: In vivo hypoglycemic activity after administration (45 mg/kg) in mice on day 7 was determined; format: functional
Mus musculus [38] = assay: In vivo hypoglycemic activity after administration (45 mg/kg) in mice on day 0 was determined; format: functional
Mus musculus [39] = assay: In vivo hypoglycemic activity after administration (42 mg/kg) in mice on day 7 was determined; format: functional
Mus musculus [40] = assay: In vivo hypoglycemic activity after administration (42 mg/kg) in mice on day 0 was determined; format: functional

SMILES: CCCCOc1cc(O)c2c(=O)cc(-c3ccccc3)oc2c1
- Body weight (Mus musculus [1]): 24.9
- Activity (Mus musculus [2]): abnormal symptoms in treated mouse
- Food intake (Mus musculus [3]): 52.81
- Organ weight (Rattus norvegicus [4]): 0.71
- Activity (Mus musculus [5]): abnormal symptoms in treated mouse
- Body weight (Mus musculus [6]): 24.3
- Organ weight (Rattus norvegicus [7]): 10.74
- Water consumption (Mus musculus [8]): 82.5 mL
- Water consumption (Rattus norvegicus [9]): 197.16 mL
- Food intake (Mus musculus [10]): 50.53
- Organ weight (Rattus norvegicus [11]): 1.22
- Activity (Rattus norvegicus [12]): abnormal symptoms in treated mouse
- Water consumption (Mus musculus [13]): 80.92 mL
- Food intake (Mus musculus [14]): 51.91
- Activity (Mus musculus [15]): abnormal symptoms in treated mouse
- Body weight (Mus musculus [16]): 31.3
- Body weight (Mus musculus [17]): 31
- Body weight (Mus musculus [18]): 32.7
- Ratio [19]: 46.3
- Body weight (Mus musculus [20]): 30.6
- Body weight (Rattus norvegicus [21]): 293.3
- Water consumption (Mus musculus [22]): 82.83 mL
- Body weight (Rattus norvegicus [23]): 235
- Body weight (Mus musculus [24]): 23.8
- Organ weight (Rattus norvegicus [25]): 1.04
- Food intake (Mus musculus [26]): 50.4
- Activity (Mus musculus [27]): abnormal symptoms in treated mouse
- Food intake (Rattus norvegicus [28]): 113.58
- Blood glucose (Mus musculus [29]): 545.6 mg/dL
- Body weight (Mus musculus [30]): 23.5
- Blood glucose (Mus musculus [31]): 252.4 mg/dL
- Water consumption (Mus musculus [32]): 79.33 mL

SMILES: CC(=O)Oc1cc(OC(C)=O)c2c(=O)cc(-c3ccccc3)oc2c1 [CHRYSIN DIACETATE]
- Blood glucose (Mus musculus [33]): 341.5 mg/dL
- Blood glucose (Mus musculus [34]): 472 mg/dL
- Ratio [19]: 72.4

SMILES: Cc1ccc(C(=O)Oc2cc(O)c3c(=O)cc(-c4ccccc4)oc3c2)cc1
- Body weight (Mus musculus [1]): 25.1
- Activity (Mus musculus [2]): abnormal symptoms in treated mouse
- Food intake (Mus musculus [3]): 50.6 g
- Organ weight (Rattus norvegicus [4]): 0.66
- Activity (Mus musculus [5]): abnormal symptoms in treated mouse
- Body weight (Mus musculus [6]): 24.8
- Organ weight (Rattus norvegicus [7]): 9.6
- Water consumption (Mus musculus [8]): 80.42 mL
- Water consumption (Rattus norvegicus [9]): 216.83 mL
- Food intake (Mus musculus [10]): 50.78 g
- Organ weight (Rattus norvegicus [11]): 1.26
- Activity (Rattus norvegicus [12]): abnormal symptoms in treated mouse
- Blood glucose (Mus musculus [35]): 464.3 mg/dL
- Water consumption (Mus musculus [13]): 83.75 mL
- Food intake (Mus musculus [14]): 49.35 g
- Activity (Mus musculus [15]): abnormal symptoms in treated mouse
- Body weight (Mus musculus [16]): 31.2
- Body weight (Mus musculus [17]): 31.6
- Body weight (Mus musculus [18]): 32.2
- Blood glucose (Mus musculus [36]): 261.8 mg/dL
- Ratio [19]: 56.4
- Body weight (Mus musculus [20]): 31.4
- Body weight (Rattus norvegicus [21]): 302.5
- Water consumption (Mus musculus [22]): 82.08 mL
- Body weight (Rattus norvegicus [23]): 237.5
- Body weight (Mus musculus [24]): 24.7
- Organ weight (Rattus norvegicus [25]): 0.98
- Food intake (Mus musculus [26]): 49.86 g
- Activity (Mus musculus [27]): abnormal symptoms in treated mouse
- Food intake (Rattus norvegicus [28]): 112.83 g
- Body weight (Mus musculus [30]): 25.2
- Water consumption (Mus musculus [32]): 80.75 mL

SMILES: CCOc1cc(OCC)c2c(=O)cc(-c3ccccc3)oc2c1
- Ratio [19]: 91.7
- Blood glucose (Mus musculus [37]): 400.5 mg/dL
- Blood glucose (Mus musculus [38]): 436.6 mg/dL

SMILES: CCCCOc1cc(OCCCC)c2c(=O)cc(-c3ccccc3)oc2c1
- Blood glucose (Mus musculus [33]): 405.7 mg/dL
- Blood glucose (Mus musculus [34]): 454.4 mg/dL
- Ratio [19]: 89.3

SMILES: CCCCCCCCOc1cc(O)c2c(=O)cc(-c3ccccc3)oc2c1
- Body weight (Mus musculus [1]): 23.8
- Activity (Mus musculus [2]): abnormal symptoms in treated mouse
- Food intake (Mus musculus [3]): 52.57 g
- Organ weight (Rattus norvegicus [4]): 0.69
- Activity (Mus musculus [5]): abnormal symptoms in treated mouse
- Body weight (Mus musculus [6]): 24
- Organ weight (Rattus norvegicus [7]): 9.96
- Water consumption (Mus musculus [8]): 79.83 mL
- Water consumption (Rattus norvegicus [9]): 205.91 mL
- Food intake (Mus musculus [10]): 51.41 g
- Organ weight (Rattus norvegicus [11]): 1.26
- Activity (Rattus norvegicus [12]): abnormal symptoms in treated mouse
- Water consumption (Mus musculus [13]): 82.83 mL
- Food intake (Mus musculus [14]): 51.28 g
- Activity (Mus musculus [15]): abnormal symptoms in treated mouse
- Body weight (Mus musculus [16]): 30.1
- Body weight (Mus musculus [17]): 31.6
- Body weight (Mus musculus [18]): 30.8
- Ratio [19]: 51.4
- Body weight (Mus musculus [20]): 32.1
- Body weight (Rattus norvegicus [21]): 290.8
- Water consumption (Mus musculus [22]): 80.75 mL
- Body weight (Rattus norvegicus [23]): 230.8
- Body weight (Mus musculus [24]): 25.5
- Food intake (Mus musculus [26]): 50.6 g
- Activity (Mus musculus [27]): abnormal symptoms in treated mouse
- Food intake (Rattus norvegicus [28]): 113.08 g
- Blood glucose (Mus musculus [29]): 411.2 mg/dL
- Body weight (Mus musculus [30]): 24.8
- Blood glucose (Mus musculus [31]): 211.4 mg/dL
- Water consumption (Mus musculus [32]): 81.67 mL

SMILES: O=c1cc(-c2ccccc2)oc2cc(O)cc(O)c12 [CHRYSIN]
- Ratio [19]: 104.4
- Blood glucose (Mus musculus [37]): 503.5 mg/dL
- Blood glucose (Mus musculus [38]): 482.4 mg/dL

SMILES: CCCOc1cc(OCCC)c2c(=O)cc(-c3ccccc3)oc2c1
- Body weight (Mus musculus [1]): 22.3
- Activity (Mus musculus [2]): abnormal symptoms in treated mouse
- Food intake (Mus musculus [3]): 53.2 g
- Blood glucose (Mus musculus [39]): 287 mg/dL
- Organ weight (Rattus norvegicus [4]): 0.61
- Activity (Mus musculus [5]): abnormal symptoms in treated mouse
- Body weight (Mus musculus [6]): 22.7
- Organ weight (Rattus norvegicus [7]): 9.64
- Water consumption (Mus musculus [8]): 80 mL
- Water consumption (Rattus norvegicus [9]): 218.5 mL
- Food intake (Mus musculus [10]): 49.77 g
- Organ weight (Rattus norvegicus [11]): 1.23
- Activity (Rattus norvegicus [12]): abnormal symptoms in treated mouse
- Water consumption (Mus musculus [13]): 81.75 mL
- Food intake (Mus musculus [14]): 48.09 g
- Activity (Mus musculus [15]): abnormal symptoms in treated mouse
- Body weight (Mus musculus [16]): 29.5
- Body weight (Mus musculus [17]): 32.1
- Body weight (Mus musculus [18]): 28.2
- Ratio [19]: 64
- Body weight (Mus musculus [20]): 31.9
- Body weight (Rattus norvegicus [21]): 300.8
- Water consumption (Mus musculus [22]): 81.75 mL
- Body weight (Rattus norvegicus [23]): 235.8
- Body weight (Mus musculus [24]): 25.3
- Organ weight (Rattus norvegicus [25]): 0.97
- Food intake (Mus musculus [26]): 49.87 g
- Activity (Mus musculus [27]): abnormal symptoms in treated mouse
- Food intake (Rattus norvegicus [28]): 115.41 g
- Body weight (Mus musculus [30]): 25.2
- Water consumption (Mus musculus [32]): 80.92 mL
- Blood glucose (Mus musculus [40]): 448.3 mg/dL
